Measured values taken from patent publication US9353075B2, “Disubstituted beta-lactones as inhibitors of N-acylethanolamine acid amidase (NAAA)” (The Regents of the University of California, priority 2011, dated 2016).

target: r-NAAA (Rattus norvegicus (Rat), UniProt Q5KTC7); assay: r-NAAA inhibition, rat lung lysosomal NAAA preparation, UPLC/MS; format: biochemical; settings: not given
Description: Lysosomal NAAA protein preparation were obtained by homogenizing male Sprague-Dawley rat lungs (Charles River) in 20 mM Tris-HCl buffer pH 7.4 containing 0.32M sucrose. Samples were centrifuged at 800×g for 15 minutes at 4° C. Supernatants were then centrifuged at 12,000 g for 30 minutes at 4° C. Pellets were then resuspended in PBS pH 7.4 and subjected to a freeze/thaw cycle at −80° C. The suspension was finally centrifuged at 105,000×g for 1 hour at 4° C. The supernatant was then used in the enzymatic assay.
NAAA protein preparation was pre-incubated with various concentrations of test compounds or vehicle control in 100 mM NaH2PO4/Citrate buffer, 1% Triton-X, 3 mM DTT (pH 4.5) for 30 minutes at 37° C. Samples were then incubated with heptadecenoylethanolamide (50 μM, Avanti Polar Lipids) at 37° C. for 30 min. The reaction was terminated by addition of cold methanol containing heptadecanoic acid (NuCheck Prep) as internal standard. Samples were then analyzed by UPLC/MS (Acquity, Waters). Heptadecenoic and heptadecanoic acids were eluted on an Acquity UPLC BEH C18 column (50 mm length, 2.1 mm i.d., 1.7 μm pore size, Waters) isocratically at 0.5 mL/min for 1.5 min with a solvent mixture of 95% methanol and 5% water, both containing 0.25% Acetic Acid and 5 mM Ammonium Acetate. The column temperature was 40° C. Electrospray ionization was in the negative mode, capillary voltage was 0.5 kV, cone voltage was […], desolvation temperature was 500° C. N2 was used as drying gas at a flow rate of 1000 L/hour and a temperature of 500° C. The [M−H]^− ion was monitored in the selected-ion monitoring mode (m/z values: heptadecenoic acid 267.37, heptadecanoic acid 269.37). Calibration curves were generated using commercial heptadecenoic acid (NuCheck Prep). Inhibition of NAAA activity was calculated as reduction of heptadecenoic acid in the samples compared to vehicle controls. IC50 values were calculated by non-linear regression analysis of log [concentration]/inhibition curves using GraphPad Prism 5 (GraphPad Software Inc., CA—USA) applying a standard slope curve fitting.

Chain of r-NAAA (Q5KTC7 34-362): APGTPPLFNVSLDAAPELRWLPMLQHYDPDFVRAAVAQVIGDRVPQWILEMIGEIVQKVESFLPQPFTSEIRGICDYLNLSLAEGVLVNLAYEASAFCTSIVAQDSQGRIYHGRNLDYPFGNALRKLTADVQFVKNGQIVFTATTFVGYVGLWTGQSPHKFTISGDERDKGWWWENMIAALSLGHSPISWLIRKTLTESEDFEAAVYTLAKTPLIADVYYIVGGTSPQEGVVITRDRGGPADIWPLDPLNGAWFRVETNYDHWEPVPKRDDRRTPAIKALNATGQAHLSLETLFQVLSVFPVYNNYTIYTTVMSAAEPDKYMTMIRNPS

| Structure (SMILES) | IC50 [nM] | r-NAAA IC50 (μM) or % inhib. (result in words) |
| --- | --- | --- |
| CC(C)C(CCCCc1ccccc1)OC(=O)N[C@H]1C(=O)O[C@H]1C (mixture of isomers) [Example 28, [(1R) and (1S)-1-Isopropyl-5-phenyl-pentyl]-N-[(2S,3R)-2-methyl-4-oxo-oxetan-3-yl]-carbamate] | 100 |  |
| C[C@@H]1OC(=O)[C@@H]1NC(=O)OC1CCC(Cc2ccccc2)CC1 (mixture of isomers) [Example 30, (1s,4S) and (1r, 4R)-(4-Benzylcyclohexyl)-N-[(2S,3R)-2-methyl-4-oxooxetan-3-yl]-carbamate] | 310 |  |
| CCCCCOC(=O)N[C@H]1C(=O)O[C@H]1C [Example 1, Pentyl-[(2S,3R)-2-methyl-4-oxooxetan-3-yl]-carbamate] | 670 |  |
| Cc1ccc(CCOC(=O)N[C@H]2C(=O)O[C@H]2C)cc1 [Example 3, 2-(4-methylphenyl)ethyl-[(2S,3R)-2-methyl-4-oxooxetan-3-yl]-carbamate] | 1210 |  |
| C[C@@H]1OC(=O)[C@@H]1NC(=O)OCCCc1ccccc1 [Example 4, 3-phenylpropyl-[(2S,3R)-2-methyl-4-oxooxetan-3-yl]-carbamate] | 84 |  |
| C[C@@H]1OC(=O)[C@@H]1NC(=O)OC1CCN(C(=O)c2ccccc2)CC1 [Example 9, (1-benzoyl-4-piperidyl)-N-[(2S,3R)-2-methyl-4-oxo-oxetan-3-yl]-carbamate] | 1310 |  |
| C[C@@H]1OC(=O)[C@@H]1NC(=O)OC1(C)CCCCC1 [Example 10, (1-methylcyclohexyl)-[(2S,3R)-2-methyl-4-oxo-oxetan-3-yl]-carbamate] | 840 |  |
| C[C@@H]1OC(=O)[C@@H]1NC(=O)OC1(C)CCOCC1 [Example 11, (4-methyltetrahydropyran-4-yl)-N-[(2S,3R)-2-methyl-4-oxo-oxetan-3-yl]-carbamate] | 40000 |  |
| C[C@@H]1OC(=O)[C@@H]1NC(=O)OCCCCCCCc1ccccc1 [Example 16, 7-Phenylheptyl-N-[(2S,3R)-2-methyl-4-oxo-oxetan-3-yl]-carbamate] | 110 |  |
| C[C@@H]1OC(=O)[C@@H]1NC(=O)OC1(C)CCCC1 [Example 23, (1-Methylcyclopentyl) N-[(2S,3R)-2-methyl-4-oxo-oxetan-3-yl]-carbamate] | 1230 |  |
| CCCCC1(OC(=O)N[C@H]2C(=O)O[C@H]2C)COC1 [Example 24, (3-butyloxetan-3-yl)-N-[(2S,3R)-2-methyl-4-oxo-oxetan-3-yl]-carbamate] | 3760 |  |
| C[C@@H]1OC(=O)[C@@H]1NC(=O)Oc1ccc(OCc2ccccc2)cc1 [Example 26, (4-benzyloxyphenyl)-N-[(2S,3R)-2-methyl-4-oxo-oxetan-3-yl]-carbamate] | 290 |  |
| C[C@@H]1OC(=O)[C@@H]1NC(=O)OC1CCC(=Cc2ccccc2)CC1 (stereo partly drawn) [Example 31, (R,Z) and (S,E)-(4-Benzylidenecyclohexyl)-N-[(2S,3R)-2-methyl-4-oxooxetan-3-yl]-carbamate] | 750 |  |
| C[C@@H]1OC(=O)[C@@H]1NC(=O)OCCc1ccccc1 [Example 33, Phenethyl-N-[(2S,3R)-2-methyl-4-oxo-oxetan-3-yl]-carbamate] | 2520 |  |
| C[C@@H]1OC(=O)[C@@H]1NC(=O)OCCCCCCc1ccccc1 [Example 34, 6-Phenylhexyl-N-[(2S,3R)-2-methyl-4-oxo-oxetan-3-yl]-carbamate] | 1170 |  |
| C[C@@H]1OC(=O)[C@@H]1NC(=O)OCCOCCc1ccccc1 [Example 36, 2-Phenethyloxyethyl-N-[(2S,3R)-2-methyl-4-oxo-oxetan-3-yl]-carbamate] | 140 |  |
| C[C@H]1OC(=O)[C@H]1NC(=O)OCCCCCc1ccccc1 [Example 37, 5-Phenylpentyl-N-[(2R,3S)-2-methyl-4-oxo-oxetan-3-yl]-carbamate] | 3530 |  |
| C[C@H]1OC(=O)[C@@H]1NC(=O)OCCCCCc1ccccc1 [Example 38, 5-Phenylpentyl-N-[(2R,3R)-2-methyl-4-oxo-oxetan-3-yl]-carbamate] | 18 |  |
| CCCCCCOC(=O)N[C@H]1C(=O)O[C@H]1C [Example 39, Hexyl-N-[(2S,3R)-2-methyl-4-oxo-oxetan-3-yl]-carbamate] | 270 |  |
| CCCCCCCOC(=O)N[C@H]1C(=O)O[C@H]1C [Example 40, Heptyl-N-[(2S,3R)-2-methyl-4-oxo-oxetan-3-yl]-carbamate] | 40 |  |
| C[C@@H]1OC(=O)[C@@H]1N(C)C(=O)OCCCCCc1ccccc1 [Example 41, 5-Phenylpentyl-N-methyl-N-[(2S,3R)-2-methyl-4-oxo-oxetan-3-yl]-carbamate] |  | No inhib. |

same assay, conditions: read-out: r-NAAA % inhib. @ 3 μM

| Structure (SMILES) | inhibition at 3 µM [%] |
| --- | --- |
| CC[C@H]1OC(=O)[C@@H]1NC(=O)OCc1ccc(-c2ccccc2)cc1 (relative stereo) [Example 48, (4-Phenylphenyl)-methyl-N-[(2R*,3R*)-2-ethyl-4-oxo-oxetan-3-yl]-carbamate] | 100 |
| CC[C@@H]1OC(=O)[C@@H]1NC(=O)OCc1ccc(-c2ccccc2)cc1 (relative stereo) [Example 50, (4-Phenylphenyl)-methyl-N-[(2S*,3R*)-2-ethyl-4-oxo-oxetan-3-yl]-carbamate] | 100 |
| CC(C)[C@H]1OC(=O)[C@@H]1NC(=O)OCCCCCc1ccccc1 (relative stereo) [Example 51, 5-Phenylpentyl-N-[(2R*,3R*)-2-isopropyl-4-oxo-oxetan-3-yl]-carbamate] | 92 |
| CC(C)[C@H]1OC(=O)[C@@H]1NC(=O)OCc1ccc(-c2ccccc2)cc1 (relative stereo) [Example 52, (4-Phenylphenyl)-methyl-N-[(2R*,3R*)-2-isopropyl-4-oxo-oxetan-3-yl]-carbamate] | 93 |
| CC(C)[C@@H]1OC(=O)[C@@H]1NC(=O)OCCCCCc1ccccc1 (relative stereo) [Example 53, 5-Phenylpentyl-N-[(2S*,3R*)-2-isopropyl-4-oxo-oxetan-3-yl]-carbamate] | 55 |
| CC(C)[C@@H]1OC(=O)[C@@H]1NC(=O)OCc1ccc(-c2ccccc2)cc1 (relative stereo) [Example 54, (4-Phenylphenyl)-methyl-N-[(2S*,3R*)-2-isopropyl-4-oxo-oxetan-3-yl]-carbamate] | 53 |
| CC(C)(C)[C@H]1OC(=O)[C@@H]1NC(=O)OCc1ccc(-c2ccccc2)cc1 (relative stereo) [Example 57, (4-Phenyl-phenyl)-methyl-N-[(2R*,3R*)-2-tert-butyl-4-oxo-oxetan-3-yl]-carbamate] | 73 |
| CC(C)(C)[C@@H]1OC(=O)[C@@H]1NC(=O)OCc1ccc(-c2ccccc2)cc1 (relative stereo) [Example 59, (4-Phenyl-phenyl)-methyl-N-[(2S*,3R*)-2-tert-butyl-4-oxo-oxetan-3-yl]-carbamate] | 57 |
| CCC1OC(=O)C1NC(=O)OC(C)(C)C (stereo not drawn) [Example 13, tert-Butyl-N-[(2S*,3R*)-2-ethyl-4-oxo-oxetan-3-yl]-carbamate and tert-Butyl-N-[(2S*,3S*)-2-ethyl-4-oxo-oxetan-3-yl]-carbamate] | 48 |
| C[C@@H]1OC(=O)[C@@H]1NC(=O)OC1CCN(Cc2ccccc2)CC1 [Example 21, (1-benzyl-4-piperidyl)-N-[(2S,3R)-2-methyl-4-oxo-oxetan-3-yl]-carbamate] | 21 |

same assay, conditions: read-out: r-NAAA % inhib. @ 10 μM

| Structure (SMILES) | inhibition at 10 µM [%] |
| --- | --- |
| C[C@@H]1OC(=O)[C@@H]1NC(=O)OCc1cccc(-c2ccccc2)c1 [Example 14, (3-phenylphenyl)-methyl-N-[(2S,3R)-2-methyl-4-oxo-oxetan-3-yl]-carbamate] | 28 |
